We go through 88 compounds from a melting point compilation (Tetko et al.; mined from patent text by program, amines drawn as free bases though some values may be those of a salt).

By melting point is commonly meant the temperature, or range, at which the solid turns liquid. `CN(C)C(N)=C(C#N)C(N)=S`: the melting point fell in the range of 186 to 187 °C. Compound `CC(C)(C)C(=O)C(Br)Oc1ccc(S(=O)(=O)c2ccccc2)cc1` (stereo not drawn) gave a melting point of 157 to 162 °C. In turn, `CCCN1CCC23c4cccc(O)c4OC2C2CCC3(C1)C(COC)C2` (stereo not drawn) yielded a melting point of 130 to 131 °C.

Regarding `CN(C)CCCOc1ccc(-c2nnc(CSCCOc3ccccc3)o2)nc1`, the melting point was in the range of 47 to 49 °C. For `O=[N+]([O-])c1ccc(CCN2CCN(c3cc(Cl)nnc3Cl)CC2)c([N+](=O)[O-])c1` the value was 145 to 146 °C; for `CCc1cc(OC)c(C=C(C)[N+](=O)[O-])cc1OC`, 63 to 64 °C; for `CC(C)(C)C(=O)OCn1cnc2c(OCc3ccccc3)nc(N)nc21`, 161 to 162 °C.

For `CCC(=O)OC(C)(CC)c1nc2c(C(F)(F)F)cccc2c(O)c1C(=O)Nc1ccccn1` (stereo not drawn), the melting point amounted to 192 °C. In the case of `Cc1nc2c(N)nc3ccccc3c2n1CC(C)(C)OCCS(C)(=O)=O` it was 253 to 255 °C. `CCOCC1(F)CCN([C@@H](c2ccc(C(F)(F)F)cc2CN(Cc2cc(C(F)(F)F)cc(C(F)(F)F)c2)c2nnn(C)n2)C(C)C)CC1` showed a melting point of 95 °C. In the case of `COc1cc(-c2ccc(NC(=O)OC(C)(C)C)cc2)c(C(C)=NOCc2ccc([N+](=O)[O-])cc2)cc1O` it was 91 to 96.8 °C. In the case of `COC(=O)c1ccc2c(c1)C(=O)C1(CC1)O2` it was 89 to 91 °C; in that of `OC1CCN(c2ncc(-c3ccc(Cl)cc3Cl)cn2)CC1`, 122 to 124 °C; in that of `O=C(O)CCCc1cc2nc(Cl)ccc2n1S(=O)(=O)c1ccccc1OC(F)(F)F`, 138 °C. Turning to `CCOc1nc(C(F)(F)F)cc(=O)n1-c1cc(C(=O)OC)c(Cl)cc1F`, the melting point was 96 to 98 °C. The compound `CC(C)(C)OC(=O)N1CCCC1(Cc1ccc(Br)cc1)C(=O)O` (stereo not drawn) had a melting point of 144 °C.

In turn, `CCC(CC)Oc1nc(C)nc2c1[nH]c(=O)n2-c1c(C)cc(C)cc1C` registered a melting point of 159 to 160 °C. `O=C(O)c1ncsc1-c1ccccc1` gave a melting point of 189 to 190 °C. For `Cc1ccc2[nH]c(-c3ccccc3)c(CCN3CCCCC3)c2c1`, the melting point was in the range of 163 to 164 °C. For `CC1(C)CCC[C@H](N2C(=O)c3ccccc3C2=O)C(=O)N1` the value was 193 to 194 °C; for `CCOC(=O)c1ccc(NCC(C)Oc2cccc3ccccc23)cc1` (stereo not drawn), 110 to 112 °C; for `CC(C)(C)OC(=O)NCCNC(=O)c1ncccc1N`, 103 to 105 °C. In turn, `CC(=O)c1noc2cc(OCc3cccc(C(F)(F)F)c3)ccc12` registered a melting point of 130 to 132 °C. In the case of `COc1cccc2c1Sc1ccccc1C21CCN(C#N)CC1` it was 145 to 146 °C; in that of `CC(C)(C)OC(=O)N[C@@H](Cc1ccc(C(=N)NC(=O)OCc2ccccc2)cc1)C(=O)O`, 112 to 115 °C. In the case of `O=C(NC1CC1)c1ccc(N2CCN(Cc3cnc4c(c3)NC(=O)[C@@H]3CCCN43)CC2)cc1` it was 265 to 268 °C; in that of `COc1cc2ncnc(Nc3cc(Cl)cc(N=[N+]=[N-])c3)c2cc1OC`, 205 to 206 °C; in that of `CC1CCc2c(c(-c3ccccc3)nc(=O)n2C(C)C)C1` (stereo not drawn), 175 to 177 °C. `CCCCCCCNC(=O)N(C)c1cccc(-c2ccc(CCC(=O)NO)cc2)c1` yielded a melting point of 100 to 101 °C. In turn, `O=C(O)c1cn(C2CC2)c2c(F)c(-n3cnc(-c4ccccc4)c3)c(F)cc2c1=O` gave a melting point of 286 to 288 °C. In the case of `Cn1nc(C(F)(F)F)c(CS(=O)(=O)C2=NOC(C)(C)C2)c1OC1CCCC1` it was 113 to 114 °C; in that of `CS(=O)(=O)Nc1ccc(C=CC(=O)N2CCc3c([nH]c4ccccc34)C2c2ccc3c(c2)OCO3)cc1` (stereo not drawn), 203 °C; in that of `O=[N+]([O-])c1cc(S(=O)(=O)C(F)(F)F)c(-c2ccc(Cl)cc2)[nH]1`, 174 to 180 °C. `CC(=O)C1CCCNC1=O` (stereo not drawn) displayed a melting point of 101 to 103 °C.

In the case of `CCCCOC(=O)C=Cc1ccc(C=CC(=O)OCCCC)c2nsnc12`, the melting point lay within 90 to 94 °C. Turning to `OC(CNC(c1ccccc1)C(O)c1ccccc1)CNC(c1ccccc1)C(O)c1ccccc1` (stereo not drawn), the melting point was in the range of 155 to 175 °C.

`CC(=O)OCc1cc2c(Cl)ccc(-n3c(=O)cc(C(F)(F)F)n(C)c3=O)c2o1`: the melting point lay within 135 to 138 °C. With `CC(=O)Nc1ccc(CNc2n[nH]c3ncnc(Nc4cccc(Cl)c4)c23)cc1`, the melting point is over 260 °C. In the case of `C=Cc1ccc(OC)c(OC)c1` it was 110 to 114 °C; in that of `NS(=O)(=O)c1cccc(-c2noc(-c3cnn4c(C(F)F)cc(-c5ccc(C(F)(F)F)cc5)nc34)n2)c1`, 267 °C; in that of `Nc1ccc(Sc2c(NCc3ccccc3)cc(C(=O)O)cc2S(N)(=O)=O)cc1`, 254 to 256 °C. `COc1ccccc1-c1ccc(C[C@@H](NC(=O)c2c(Cl)cccc2Cl)C(=O)O)cc1` came in with a melting point of 195 °C.

In turn, `COC(=O)c1ccc(CNS(C)(=O)=O)cc1S(N)(=O)=O` yielded a melting point of 185 to 187 °C. For `O=Cc1cn(Cc2ccc(OCc3ccccc3)cc2)nc1OCc1ccc(OCc2ccccc2)cc1` the value was 138 to 139 °C; for `CC(C)(C)c1cc(OCc2ccccc2C(=O)Nc2nnn[nH]2)cc(C(C)(C)C)c1`, 251 to 254 °C; for `COC(=O)c1cc(NC(=O)OC(C)(C)C)c([N+](=O)[O-])cc1C#Cc1ccccc1`, 173 °C. In the case of `CSc1ccc(-c2nc(SC)ccc2-c2ccc(S(C)(=O)=O)cc2)cc1` it was 175 °C; in that of `O=C1CN2CCC1CC2`, 58 °C; in that of `CC1CC(=O)NN=C1c1ccc(NN=C(c2ccc(O)cc2O)c2ccc(O)cc2O)cc1` (stereo not drawn), 150 to 175 °C. As for `CC1(C)CC(NS(C)(=O)=O)c2ccccc21` (stereo not drawn), the melting point lay within 117 to 119 °C.

For `Cc1ccc(-c2ccc(C(=O)Nc3ccc4cc(CN5CCCC5)ccc4c3)cn2)cc1`, the melting point lay within 260 to 262 °C. In the case of `Nc1c(-c2nc(-c3ccco3)n[nH]2)cnn1CCc1ccccc1` it was 175 to 176 °C; in that of `O=C1CCC(=O)N1Cn1nnc(-c2ccnc(-c3nnn(CN4C(=O)CCC4=O)n3)c2)n1`, 190 to 192 °C. For `CC(C)(C)OC(=O)Cn1c(=O)c(-c2c(Cl)cccc2Cl)cc2cnc(N)nc21` the value was 171 to 173 °C. For `Cn1ncnc1COc1nn2c(-c3ccccc3F)nncc2c1-c1cccc(F)c1F` the value was 176 °C; for `CCOc1cccc(C)c1S(=O)(=O)N=C=O`, 40 °C. As for `O=C1c2ccccc2C(=O)N1CCN1CCCC1c1cccc(O)c1` (stereo not drawn), the melting point lay within 172 to 175 °C.

Take `CCCn1cnc(COc2nn3c(-c4ccccc4)nnc3cc2-c2ccccc2)n1`: the melting point fell in the range of 212 to 214 °C. Turning to `NC(=O)C1N=COC1CCl` (stereo not drawn), the melting point lay in the range of 110 to 112 °C. Turning to `CCCCCCCCCCCCCCCC(=O)N[C@@H](CSC[C@H](O)[C@H](O)CO)C(=O)O`, the melting point fell in the range of 76 to 76.5 °C. `Cc1cc(C)cc(Sc2c(C(C)C)c(=O)[nH]c(=O)n2CC2=CC(CO)C(CO)C2)c1` (stereo not drawn): the melting point is 136 to 137 °C.

With `O=C1Nc2ccc(I)cc2C1=NNC(=O)C1CCN(Cc2cccnc2)CC1`, the melting point amounted to 125 °C. `CCCC1(C)CC(=O)NC(=O)C1`: the melting point is 110 to 112 °C.

With `CC1Cc2ccc(Br)cc2C(c2ccc([N+](=O)[O-])cc2)=NN1` (stereo not drawn), the melting point was 125 to 130 °C.

For `CC(=O)Nc1ccc2c(c1)N(C1CCN(CCc3ccc(F)cc3)CC1)CC2`, the melting point is 148 to 150 °C. For `O=Cc1ccc(-c2cn3ccnc3s2)cc1` the value was 169 °C; for `N#Cc1ccc(OCC(O)CN2CCSCC2)cc1` (stereo not drawn), 94 to 95 °C. For `CC(C)NC1=NS(=O)(=O)c2c(Cl)cccc2N1` the value was 144 to 146 °C; for `CCCNC(=O)n1c(Cc2ccccc2)noc1=O`, 74 °C. In the case of `COc1cccc([N+](=O)[O-])c1NC(=O)OCc1ccccc1` it was 78 to 80 °C; in that of `O=C(O)c1ccccc1Nc1ccc(CCCc2ccc(Cl)c(Cl)c2)cc1`, 120 to 126 °C. In the case of `C#Cc1cncc(C2CCC(=O)N2C)c1` (stereo not drawn), the melting point was in the range of 83 to 84 °C. For `CNC(=O)c1ccccc1Nc1nc(Nc2ccc3c(c2)CCC(F)(F)CC3)ncc1Cl` the value was 160 to 168 °C; for `CCOC(=O)c1ccc2cc(N)ccn2c1=O`, over 250 °C.

`CC1=CCC(=C2C(=O)C3(CS(=O)(=O)O)CCC2C3(C)C)C=C1` (stereo not drawn) registered a melting point of 220 °C. `CN(C(=O)c1ccc2nonc2c1)[C@H]1CC[C@H](N)CC1` yielded a melting point of 145 to 146 °C. `COC(=O)Cn1nnnc1CCC(NC(=O)CCC(C)(NC(=O)OCc1ccccc1)C(=O)O)C(=O)OC` (stereo not drawn): the melting point fell in the range of 64 to 65 °C. In the case of `COc1cccc(C(O)CN(C)Cc2sc3c(=O)c(C(=O)NCc4ccc(Cl)cc4)cn(C)c3c2CO)c1` (stereo not drawn) it was 165 to 168 °C; in that of `CCOCCOCCOCC1(c2ccc(Oc3cncc4sc(-c5nnc(N)o5)cc34)cc2)CC1`, 113 to 114 °C. In turn, `CC(C)(C)[Si](C)(C)Oc1ccc(-c2ccc(C3CCC(c4c(F)cccc4F)=N3)cc2)cc1` (stereo not drawn) returned a melting point of 33 °C. On to `COc1ccccc1N1CCN(CC(C(=O)O)c2ccccc2)CC1` (stereo not drawn), for which the melting point was in the range of 160 to 163 °C. Compound `CCCc1nc2c(c(C)c(C)n3nnnc23)n1CC(C)(C)N` had a melting point of 154 to 156 °C. For `CNC(=S)NCCCSCc1c[nH]cn1` the value was 118 to 120 °C; for `CC1=C(c2ccncc2)SC(OC(=O)c2cccc(Cl)c2)C(=O)N1` (stereo not drawn), 142 to 143 °C. `C=CCN1CCC(Nc2nc3cncnc3n2Cc2ccc(F)cc2)CC1` displayed a melting point of 145 °C. `COc1c(F)cc(Cn2cnnc2S)cc1F` showed a melting point of 124 to 126 °C. `COc1cc2c(cc1Nc1ncc(C(F)(F)F)c(Nc3ccc(N4CCOCC4)cc3OC)n1)CCOC(=O)N2C` returned a melting point of 232 to 234 °C.

In the case of `CCCC(=O)c1ccccc1NC(C)=O`, the melting point is 46.5 to 47 °C.
